Patent US8034810B2, “Arylsulfonamido-substituted hydroxamic acid derivatives” (Novartis AG, priority 1999, dated 2011)

The compounds below were run against T1, MT1-MMP (Homo sapiens, UniProt P50281) (assay: In vitro inhibition of MT1-MMP, fluorogenic peptide substrate). Settings: catalytic domain of human MT1-MMP; substrate 10 μM; 37° C.
T1 construct: made in house
Assay type: biochemical
Protocol: The inhibitory activities of compounds of formula I on MT1-MMP, MMP1 (collagenase 1) and MMP2 (gelatinase A) can be determined as follows:
Stock solutions of substrate (MCA-Pro-Leu-Gly-Leu-Dpa-Ala-Arg-NH2, Knight, C. G., Willenbrock, F., Murphy, G., A novel coumarin-labelled peptide for sensitive continuous assays of the matrix metalloproteinases, FEBS lett., 296, 263-266, (1992)), are prepared in 100% DMSO at a concentration 1.0 mM. Stock solutions of inhibitors are prepared in 100% DMSO. The inhibitor is diluted into the assays from a solution in 100% DMSO, and controls substitute an equal volume of DMSO so that the final DMSO concentration from inhibitor and substrate dilutions in all assays is 6.0%. Assays are performed in assay buffer (150 mM NaCl, 10 mM CaCl2, 50 mM Tris-Cl pH7.5, 0.05% Brij-35) containing 6.0% DMSO once the substrate and inhibitor are diluted into it. The substrate concentration used in the assays is 10 μM. The test is carried out at 37° C. The fluorescence changes are monitored using an excitation wavelength of 320 nm and an emission wavelength of […]. The reaction mixture is added in duplicate to appropriate wells of a 96 well microfluor plate. The reaction mixture is preincubated with the inhibitor for 30 min, the reaction is started by the addition of MMP enzyme and the fluorescence intensity is measured for 10 min. A time point that is on a linear part of the curve is chosen to determine the activity. The inhibition results are expressed as the inhibitor concentrations that produced 50% inhibition (IC50) of the activity in the control (non-inhibited) reaction. In this test, the compounds of the formula I and their pharmacologically acceptable salts have an inhibiting concentration IC50 [μmol/litre] of 0.0001 and 0.030, usually of 0.0002 to 0.010, for MMP2 and an inhibiting concentration IC50 [μmol/litre] of 0.0005 and 0.125, usually of 0.001 to 0.05, for MT1-MMP.
Plasmid: The catalytic domain of the cDNA fragment encoding a full length of human MT1-MMP gene [from Prof. Motoharu Seiki, Institute of Medical Science, The University of Tokyo; Sato, H., Takino, T., Okada, Y., Cao, J., Shinagawa, A., Yamamoto, E. and Seiki, M. Nature (London), 370:61-65, 1994)] is amplified by polymerase chain reaction (PCR). […] The resulting PCR product of a 519-bp fragment is subcloned between the NdeI and BamHI unique sites of pET11a (Stratagene). The sequence of catalytic domain of MT1-MMP (CD-MT1-MMP) is verified by the ABI PRIS™ dye terminator cycle sequencing kit with the ABI PRISM™ 377 DNA sequencer (Perkin Elmer).
Expression and Purification: The subcloned CD-MT1-MMP is used to transfect E. coli strain BL21-[DE3] (Hanahan, D. J. Mol. Biol. 1983; 166(4):557-80) and expressed as insoluble inclusion body materials. Transfectants are grown at 37° C. in 50 ml Luria-Bertani (LB) medium in the presence of 50 µg/ml ampicillin to a cell density of OD600=0.6-1.0, and CD-MT1-MMP production is induced with 1 mM isopropyl-1-D-galactopyranoside (IPTG). After treatments with 5 mg/ml lysozyme and 10 μg/ml DNase I, the inclusion bodies are prepared from the harvested cells by using the detergent buffer containing 0.2 M NaCl, 1% w/v deoxycholic acid, and 1% v/v Nonidet P40. The solubilization is achieved by resuspending the inclusion bodies in the solubilization buffer composed of 6 M urea, 100 mM 2-mercaptoethanol, and 20 mM Tris-Cl, pH8.5. The enzyme is purified and renaturated using 10 ml of a Q-Sepharose (Amersham Pharmacia Biotech) column equilibrated with 5 mM CaCl2, 0.02% v/v NaN3, in 20 mM Tris-Cl pH7.5. After washing with three volumes of the same buffer, the bound proteins are eluted with two volumes of a linear gradient of 0.5-1.0 M NaCl. The collected fractions (1 ml each) are dialyzed for 6 h in equilibrated buffer. Superdex G200 column (1×15 cm) (Amersham Pharmacia) is equilibrated in 20 mM Tris-Cl, pH 7.5, 5 mM CaCl2, 0.02% NaN3. The desalted sample is applied to Superdex G200 column and chromatographed at 0.5 ml/min. […]

| IC50 | Compound |
| --- | --- |
| 5.5 nM | C=CCCOc1ccc(S(=O)(=O)N(Cc2cccc(OC)c2)[C@@H](C(=O)NO)C(C)C)cc1 [Example 13, (R)-2-[(4-but-3-enyloxy-benzenesulfonyl)-(3-methoxy-benzyl)-amino]-N-hydroxy-3-methyl-butyramide] |
| 3.7 nM | COc1cccc(CN([C@H](C)C(=O)NO)S(=O)(=O)c2ccc(OCCCCl)cc2)c1 [Example 15, (R)-2-{[4-(3-chloro-propoxy)-benzenesulfonyl]-(3-methoxy-benzyl)-amino}-N-hydroxy-propionamide] |
| 12.7 nM | O=C(NO)[C@@H](Cc1ccccc1)N(Cc1ccc(Cl)cc1)S(=O)(=O)c1ccc(OCCCF)cc1 [Example 30, (R)-2-{(4-chloro-benzyl)-[4-(3-fluoro-propoxy)-benzenesulfonyl]-amino}-N-hydroxy-3-phenyl-propionamide] |

| Compound | IC50 |
| --- | --- |
| COc1ccc(CN([C@H](CC(C)C)C(=O)NO)S(=O)(=O)c2ccc(OCCCCF)cc2)cc1 [Example 53, (R)-2-{[4-(4-fluoro-butoxy)-benzenesulfonyl]-(4-methoxy-benzyl)-amino}-N-hydroxy-4-methyl-valeramide] | 9.2 nM |
